Where two headings read alike, the source gives them in different places. Marks after values point to notes of the source that are not given here.
Assays:
Septoria nodorum = experiment: Test C: wheat glume blotch, preventive spray on wheat seedlings, visual disease rating; conditions: 100 = 100 % disease control, 0 = no disease control relative to controls
Experimental: (An asterisk “*” next to the rating value indicates a 40 ppm test suspension.)
The test suspension was sprayed to the point of run-off on wheat seedlings. The following day the seedlings were inoculated with a spore suspension of Septoria nodorum (the causal agent of wheat glume blotch) and incubated in a saturated atmosphere at 20° C. for 48 h, and then moved to a growth chamber at 20° C. for 7 days, after which time visual disease ratings were made.
(§1) A dash (−) indicates no test results. All results are for 200 ppm except where followed by “*” which indicates 40 ppm.

Phytophthora infestans = assay type: in vivo; conditions: 100 = 100 % disease control, 0 = no disease control relative to controls
Plasmopara viticola = experiment: Test I: grape downy mildew, spray on grape seedlings after inoculation, visual disease rating; conditions: 100 = 100 % disease control, 0 = no disease control relative to controls
Excerpt: (§2) General protocol for preparing test suspensions for Tests A-I: The test compounds were first dissolved in acetone in an amount equal to 3% of the final volume and then suspended at the desired concentration (in ppm) in acetone and purified water (50/50 mix) containing 250 ppm of the surfactant Trem® 014 (polyhydric alcohol esters). The resulting test suspensions were then used in Tests A-I. Spraying a 200 ppm test suspension to the point of run-off on the test plants was the equivalent of a rate of 500 g/ha. (An asterisk “*” next to the rating value indicates a 40 ppm test suspension.)
Grape seedlings were inoculated with a spore suspension of Plasmopara viticola (the causal agent of grape downy mildew) and incubated in a saturated atmosphere at 20° C. for 24 h. After a short drying period, the test suspension was sprayed to the point of run-off on the grape seedlings and then moved to a growth chamber at 20° C. for 6 days, after which time the test units were placed back into a saturated atmosphere at 20° C. for 24 h. Upon removal, visual disease ratings were made.
(§3) All results are for 200 ppm except where followed by “*” which indicates 40 ppm.

Rhizoctonia oryzae = experiment: Test G: turf brown patch, preventive spray on creeping bent grass seedlings, visual disease rating; conditions: 200 ppm; 100 = 100 % disease control, 0 = no disease control relative to controls
Experimental: The test suspension was sprayed to the point of run-off on creeping bent grass seedlings. The following day the seedlings were inoculated with a spore suspension of Rhizoctonia oryzae (the causal agent of turf brown patch) and incubated in a saturated atmosphere at 27° C. for 48 h, and then moved to a growth chamber at 27° C. for 3 days, after which time visual disease ratings were made.
as §1

[1] = test system: Puccinia recondita f. sp. tritici; experiment: Test B: wheat leaf rust, preventive spray on wheat seedlings, visual disease rating; conditions: 100 = 100 % disease control, 0 = no disease control relative to controls
Excerpt: (§4) General protocol for preparing test suspensions for Tests A-I: The test compounds were first dissolved in acetone in an amount equal to 3% of the final volume and then suspended at the desired concentration (in ppm) in acetone and purified water (50/50 mix) containing 250 ppm of the surfactant Trem® 014 (polyhydric alcohol esters). The resulting test suspensions were then used in Tests A-I. Spraying a 200 ppm test suspension to the point of run-off on the test plants was the equivalent of a rate of 500 g/ha.
The test suspension was sprayed to the point of run-off on wheat seedlings. The following day the seedlings were inoculated with a spore suspension of Puccinia recondita f. sp. tritici (the causal agent of wheat leaf rust) and incubated in a saturated atmosphere at 20° C. for 24 h, and then moved to a growth chamber at 20° C. for 7 days, after which time visual disease ratings were made.
as §3

[2] = test system: Erysiphe graminis f. sp. tritici; experiment: Test A: wheat powdery mildew, preventive spray on wheat seedlings, visual disease rating; conditions: 100 = 100 % disease control, 0 = no disease control relative to controls
Excerpt: as §2
The test suspension was sprayed to the point of run-off on wheat seedlings. The following day the seedlings were inoculated with a spore dust of Erysiphe graminis f. sp. tritici (the causal agent of wheat powdery mildew) and incubated in a growth chamber at 20° C. for 8 days, after which time visual disease ratings were made.

Alternaria solani = experiment: Test F: tomato early blight, preventive spray on tomato seedlings, visual disease rating; conditions: 100 = 100 % disease control, 0 = no disease control relative to controls
Excerpt: as §2
The test suspension was sprayed to the point of run-off on tomato seedlings. The following day the seedlings were inoculated with a spore suspension of Alternaria solani (the causal agent of tomato early blight) and incubated in a saturated atmosphere at 27° C. for 48 h, and then moved to a growth chamber at 20° C. for 5 days, after which time visual disease ratings were made.
as §1

Botrytis cinerea = experiment: Test E: tomato Botrytis, preventive spray on tomato seedlings, visual disease rating; conditions: 100 = 100 % disease control, 0 = no disease control relative to controls
Excerpt: as §4
The test suspension was sprayed to the point of run-off on tomato seedlings. The following day the seedlings were inoculated with a spore suspension of Botrytis cinerea (the causal agent of tomato Botrytis) and incubated in saturated atmosphere at 20° C. for 48 h, and then moved to a growth chamber at 24° C. for 3 additional days, after which time visual disease ratings were made.
as §3

Septoria tritici = experiment: Test D: wheat leaf blotch, preventive spray on wheat seedlings, visual disease rating; assay type: in vivo; conditions: 100 = 100 % disease control, 0 = no disease control relative to controls
Excerpt: A dash (−) indicates no test results.

| Compound | Test C disease control rating (Septoria nodorum; 200 ppm) [%] | Test H disease control rating (Phytophthora infestans; 200 ppm) [%] | Test I disease control rating (Plasmopara viticola; 200 ppm) [%] | Test G disease control rating (Rhizoctonia oryzae) [%] | Test B disease control rating ([1]; 200 ppm) [%] | Test A disease control rating ([2]; 200 ppm) [%] | Test F disease control rating (Alternaria solani; 200 ppm) [%] | Test E disease control rating (Botrytis cinerea; 200 ppm) [%] | Test C disease control rating (Septoria nodorum; 40 ppm (marked *)) | Test H disease control rating (Phytophthora infestans; 40 ppm (marked *)) | Test I disease control rating (Plasmopara viticola; 40 ppm (marked *)) | Test B disease control rating ([1]; 40 ppm (marked *)) | Test A disease control rating ([2]; 40 ppm (marked *)) | Test F disease control rating (Alternaria solani; 40 ppm (marked *)) | Test D disease control rating (Septoria tritici; 40 ppm (marked *)) | Test E disease control rating (Botrytis cinerea; 40 ppm (marked *)) | Test D disease control rating (Septoria tritici; 200 ppm) [%] |
| --- | --- | --- | --- | --- | --- | --- | --- | --- | --- | --- | --- | --- | --- | --- | --- | --- | --- |
| CN1OC(C)(c2cccnc2)CC1c1ccc(Br)cc1 (racemic) [Compound 4] | 100 | 0 | 0 | 0 | 32 | 90 | 0 | 80 | – | – | – | – | – | – | – | – | – |
| CN1O[C@](C)(c2cccnc2)C[C@@H]1c1ccc(Cl)cc1 (relative stereo) [Compound 1, rel-3-[(3R,5S)-3-(4-chlorophenyl)-2,5-dimethyl-5-isoxazolidinyl]pyridine] | 100 | 0 | 0 | 0 | 0 | 97 | 0 | 83 | – | – | – | – | – | – | – | – | – |
| CN1OC(C)(c2cccnc2)CC1c1ccc(-c2ccccc2)cc1 (racemic) [Compound 12] | 82 | 0 | 0 | 0 | 74 | 99 | 0 | 29 | – | – | – | – | – | – | – | – | – |
| CN1OC(C)(c2cccnc2)CC1c1ccc(-n2cccn2)cc1 (stereo not drawn) [Compound 34] | – | – | – | – | – | – | – | – | 99* % | 0* % | 0* % | 0* % | 98* % | 6* % | 88* % | 56* % | – |
| Cc1ccc(-c2ccc([C@H]3C[C@@](C)(c4cccnc4)ON3C)cc2)cc1 (relative stereo) [Compound 13, rel-3-[(3R,5S)-2,5-dimethyl-3-(4′-methyl[1,1′-biphenyl]-4-yl)-5-isoxazolidinyl]pyridine] | – | – | – | – | – | – | – | – | 0* % | 0* % | 0* % | 0* % | 99* % | 0* % | 92* % | 99* % | – |
| CN1OC(C)(c2cccnc2)CC1c1ccc(Cl)c(Cl)c1 (stereo not drawn) [Compound 5] | 0 | 0 | 0 | 0 | 0 | 98 | 51 | 91 | – | – | – | – | – | – | – | – | – |
| CN1OC(C)(c2cccnc2)CC1c1ccc(-n2cccn2)cc1 (racemic) [Compound 33] | – | – | – | – | – | – | – | – | 99* % | 0* % | 0* % | 0* % | 99* % | 58* % | 80* % | 39* % | – |
| CN1OC(C)(c2cccnc2)CC1c1ccc(Oc2ccccc2)cc1 (racemic) [Compound 9] | 95 | 17 | 0 | 0 | 82 | 99 | 78 | 99 | – | – | – | – | – | – | – | – | – |
| CN1OC(C)(c2cccnc2)CC1c1ccc(Oc2ccccc2)cc1 (racemic) [Compound 10] | 98 | 0 | 0 | 0 | 82 | 93 | 0 | 98 | – | – | – | – | – | – | – | – | – |
| CN1O[C@@](C)(c2cccnc2)C[C@@H]1c1ccc(Cl)cc1 (relative stereo) [Compound 2, rel-3-[(3R,5R)-3-(4-chlorophenyl)-2,5-dimethyl-5-isoxazolidinyl]pyridine] | 99 | 0 | 17 | 0 | 0 | 72 | 0 | 0 | – | – | – | – | – | – | – | – | – |
| CN1OC(C)(c2cccnc2)CC1c1ccc(Cl)c(Cl)c1 (stereo not drawn) [Compound 6] | 0 | 0 | 17 | 0 | 0 | 99 | 0 | 0 | – | – | – | – | – | – | – | – | – |
| CN1OC(C)(c2cccnc2)CC1c1ccc(-c2ccc(OC(F)(F)F)cc2)cc1 (racemic) [Compound 17] | – | – | – | – | – | – | – | – | 0* % | 0* % | 0* % | 0* % | 100* % | 15* % | 30* % | 94* % | – |
| CN1OC(C)(c2cccnc2)CC1c1ccc(I)cc1 (racemic) [Compound 16] | 95 | 0 | 0 | – | 0 | 99 | 0 | 56 | – | – | – | – | – | – | – | – | 96 |
| CN1O[C@](C)(c2cccnc2)C[C@@H]1c1ccc(-n2ccc(C(F)(F)F)n2)cc1 (relative stereo) [Compound 35, rel-3-[(3R,5S)-2,5-dimethyl-3-[4-[3-(trifluoromethyl)-1H-pyrazol-1-yl]phenyl]-5-isoxazolidinyl]pyridine] | – | – | – | – | – | – | – | – | 100* % | 0* % | 0* % | 100* % | 100* % | 98* % | 99* % | 99* % | – |
| CN1OC(C)(c2cccnc2)CC1c1ccc(I)cc1 (racemic) [Compound 15] | 99 | 0 | 0 | – | 0 | 99 | 100 | 98 | – | – | – | – | – | – | – | – | 98 |
| CN1OC(C)(c2cccnc2)CC1c1ccc(C(C)(C)C)cc1 (racemic) [Compound 7] | 69 | 0 | 0 | 0 | 34 | 99 | 40 | 99 | – | – | – | – | – | – | – | – | – |
| CN1OC(C)(c2cccnc2)CC1c1ccc(Br)cc1 (racemic) [Compound 3] | – | 0 | – | – | 0 | 93 | – | 79 | – | – | – | – | – | – | – | – | – |
| CN1OC(C)(c2cccnc2)CC1c1ccc(C(C)(C)C)cc1 (racemic) [Compound 8] | 40 | 0 | 0 | 0 | 69 | 99 | 0 | 56 | – | – | – | – | – | – | – | – | – |
| CN1OC(C)(c2cccnc2)CC1c1ccc(-c2cncnc2)cc1 (stereo not drawn) [Compound 53] | – | – | – | – | – | – | – | – | 0* % | – | – | 0* % | 0* % | 31* % | 68* % | 25* % | – |
| CN1OC(C)(c2cccnc2)CC1c1ccc(-c2ccccc2)cc1 (racemic) [Compound 11] | 97 | 0 | 0 | 0 | 91 | 99 | 26 | 99 | – | – | – | – | – | – | – | – | – |
| Cc1ccc(-c2ccc(C3CC(C)(c4cccnc4)ON3C)cc2)cc1 (racemic) [Compound 14] | – | – | – | – | – | – | – | – | 0* % | 0* % | 0* % | 0* % | 91* % | 0* % | 0* % | 0* % | – |
| Cc1cc(C)n(-c2ccc(C3CC(C)(c4cccnc4)ON3C)cc2)n1 (stereo not drawn) [Compound 50] | – | – | – | – | – | – | – | – | 87* % | – | – | 0* % | 0* % | 0* % | 73* % | 84* % | – |
